Assay results as given in US11752139B2, “Therapeutic combinations of orally administered irinotecan and a p-gp inhibitor for the treatment of cancer” (priority 2018, dated 2023).
Read-outs that look alike come from different tables or passages of the source.

What was measured:
clinical [1] = settings: human, in vivo
clinical [2] = settings: human, in vivo, po, N = 3; for AUC(0-t): AUC24 h
Experimental: (§1) A phase 1 dose escalation study was performed to determine the MTD and DLT of orally administered irinotecan in combination with 15 mg (on day 1 of a 21-day cycle) of HM30181A. The study was performed on cohorts of 3-6 subjects with advanced malignancies. Subjects had Hb (hemoglobin count) 9 gm/dL, ANC (absolute neutrophil count) 1.5×10^9/L, and platelets 100×10^9/L, as well as adequate hepatic and renal function, and ECOG (Eastern Cooperative Oncology Group Performance Status) 0-1, and were not homozygous for UGT1A1*28.

clinical [3] = settings: human, in vivo; remark: listed apart in the source
advanced malignancies = assay: Phase 1 dose escalation study of oral irinotecan with 15 mg HM30181A: response; assay type: in vivo, human; settings: subjects with advanced malignancies; 15 mg HM30181A + oral irinotecan
Experimental: as §1

[4] = Simple Emax model of exposure (AUCinf, Cmax) versus dose
[5] = Study 2: maximum tolerated dose of orally administered irinotecan with Compound A; assay type: in vivo, human; settings: dosed five days of week one and week two during a three-week cycle
Experimental: Orally administered irinotecan was determined to have a MTD of 10 mg/m^2 per day when dosed five days of week one and week two during a three-week cycle.

[6] = Study 2: pharmacokinetics of oral irinotecan and M1, 5-20 mg/m^2 per day for 10 days during a 21 day cycle; settings: for AUC / Cmax: human, in vivo, oral, mean
[7] = human, in vivo
[8] = Study 1: maximum tolerated dose of orally administered irinotecan with Compound A; assay type: in vivo, human; settings: dosed five days of week one during a three-week cycle
Experimental: Orally administered irinotecan was determined to have a maximum tolerated dose (MTD) of 20 mg/m^2 per day when dosed five days of week one during a three-week cycle.

[9] = Study 1: pharmacokinetics of oral irinotecan and M1, 5-30 mg/m^2 per day for five days during a 21 day cycle
[10] = human, in vivo; remark: listed apart in the source
[11] = dose 240 mg/m^2 oral irinotecan + 15 mg HM30181A
[12] = dose 280 mg/m^2 oral irinotecan + 15 mg HM30181A
[13] = dose 320 mg/m^2 oral irinotecan + 15 mg HM30181A
[14] = 15 mg HM30181A + 20-320 mg/m^2 oral irinotecan, day 1 of 21-day cycle, 30 patients
[15] = 15 mg HM30181A + 20-320 mg/m^2 oral irinotecan, 30 patients
[16] = 320 mg/m^2 dose level, with 15 mg HM30181A

With `CCc1c2c(nc3ccc(OC(=O)N4CCC(N5CCCCC5)CC4)cc13)-c1cc3c(c(=O)n1C2)COC(=O)[C@]3(O)CC` [oral irinotecan, (4S)-4,11-Diethyl-4-hydroxy-3,14-dioxo-3,4,12,14-tetrahydro-1H-pyrano[3′,4′:6,7]indolizino[1,2-b]quinolin-9-yl 1,4′-bipiperidine-1′-carboxylate, reference compound] the AUC (clinical [1]; 5 mg/m2, AUC24) was 50.9 ng·h/mL, the Cmax (clinical [1]; 5 mg/m2, Cmax) was 6.52 ng/mL and the AUC (clinical [1]; 10 mg/m2, AUC24) was 110 ng·h/mL. It also gave a Cmax (clinical [1]; 10 mg/m2, Cmax) of 14 ng/mL, an AUC (clinical [1]; 15 mg/m2, AUC24) of 194 ng·h/mL and a Cmax (clinical [1]; 15 mg/m2, Cmax) of 20.6 ng/mL. For the same molecule, the AUC (clinical [1]; 20 mg/m2, AUC24) was 277 ng·h/mL, the Cmax (clinical [1]; 20 mg/m2, Cmax) was 31.9 ng/mL and the AUC (clinical [1]; 25 mg/m2, AUC24) was 703 ng·h/mL. It also gave a Cmax (clinical [1]; 25 mg/m2, Cmax) of 63.6 ng/mL, an AUC (clinical [1]; 30 mg/m2, AUC24) of 736 ng·h/mL and a Cmax (clinical [1]; 30 mg/m2, Cmax) of 57.3 ng/mL. The AUC(0-t) (clinical [2]; [11]) was 6960 ng·h/mL, the AUC(0-t) (clinical [2]; [12]) was 6040 ng·h/mL and the AUC(0-t) (clinical [2]; [13]) was 11300 ng·h/mL. For the same molecule, the Cmax (clinical [2]; [11]) was 798 ng/mL, the Cmax (clinical [2]; [12]) was 763 ng/mL and the Cmax (clinical [2]; [13]) was 1060 ng/mL. It also gave a Tmax (clinical [2]; [11]) of 3 h, a Tmax (clinical [2]; [12]) of 2 h and a Tmax (clinical [2]; [13]) of 3 h. The Cmax (clinical [3]; 240 mg/m2, Observed Mean (Cmax)) was 798 ng/mL, the AUC0-inf (clinical [3]; 240 mg/m2, Observed Mean AUCinf) was 8150 ng·h/mL and the Cmax (clinical [3]; 280 mg/m2, Observed Mean (Cmax)) was 763 ng/mL. The AUC0-inf (clinical [3]; 280 mg/m2, Observed Mean AUCinf) was 6980 ng·h/mL, the Cmax (clinical [3]; 320 mg/m2, Observed Mean (Cmax)) was 1060 ng/mL and the AUC0-inf (clinical [3]; 320 mg/m2, Observed Mean AUCinf) was 14200 ng·h/mL. The Cmax (clinical [3]; po, 240 mg/m2, Cmax) was 668 ng/mL, the Tmax (clinical [3]; po, 240 mg/m2, Tmax) was 3 h and the AUC (clinical [3]; po, 280 mg/m2, AUC24) was 5020 ng·h/mL. It also gave an AUC0-inf (clinical [3]; po, 280 mg/m2, AUCinf) of 6010 ng·h/mL, an AUC(0-t) (clinical [3]; po, 280 mg/m2, AUClast) of 5890 ng·h/mL and a Cmax (clinical [3]; po, 280 mg/m2, Cmax) of 736 ng/mL. The Tmax (clinical [3]; po, 320 mg/m2, Tmax) was 3 h, the “response of stable disease” value (advanced malignancies) was 9 out of 21 and the “Predicted AUCinf” value ([4]; dose 200 mg/m^2) was 6992. The “Predicted Cmax” value ([4]; dose 200 mg/m^2) was 549, the “Predicted AUCinf” value ([4]; dose 240 mg/m^2) was 7679 and the “Predicted Cmax” value ([4]; dose 240 mg/m^2) was 600. For the same molecule, the “Predicted AUCinf” value ([4]; dose 280 mg/m^2) was 8253, the “Predicted Cmax” value ([4]; dose 280 mg/m^2) was 643 and the “Predicted AUCinf” value ([4]; dose 320 mg/m^2) was 10189. The “Predicted Cmax” value ([4]; dose 320 mg/m^2) was 752, the MTD [5] was 10 mg/m^2 per day and the pharmacokinetics versus dose ([6]; 5-20 mg/m^2 per day for 10 days during a 21 day cycle) was “increased proportionally with dose”. The AUC ([6]; 5 mg/m2, AUC24, Day 1, dose group 5 mg/m^2) was 72.1 ng·h/mL, the AUC ([6]; 5 mg/m2, AUC24, Day 12, dose group 5 mg/m^2) was 95.1 ng·h/mL and the Cmax ([6]; 5 mg/m2, Cmax, Day 1, dose group 5 mg/m^2) was 9.65 ng/mL. The AUC ([6]; 10 mg/m2, AUC24, Day 1, dose group 10 mg/m^2) was 123 ng·h/mL, the AUC ([6]; 10 mg/m2, AUC24, Day 12, dose group 10 mg/m^2) was 186 ng·h/mL and the Cmax ([6]; 10 mg/m2, Cmax, Day 1, dose group 10 mg/m^2) was 15.5 ng/mL. For the same molecule, the Cmax ([6]; 10 mg/m2, Cmax, Day 12, dose group 10 mg/m^2) was 17.9 ng/mL, the AUC ([6]; 15 mg/m2, AUC24, Day 1, dose group 15 mg/m^2) was 284 ng·h/mL and the AUC ([6]; 15 mg/m2, AUC24, Day 12, dose group 15 mg/m^2) was 281 ng·h/mL. It also gave a Cmax ([6]; 15 mg/m2, Cmax, Day 1, dose group 15 mg/m^2) of 26.9 ng/mL, a Cmax ([6]; 15 mg/m2, Cmax, Day 12, dose group 15 mg/m^2) of 38.1 ng/mL and an AUC ([6]; 20 mg/m2, AUC24, Day 1, dose group 20 mg/m^2) of 271 ng·h/mL. The AUC ([6]; 20 mg/m2, AUC24, Day 12, dose group 20 mg/m^2) was 442 ng·h/mL, the Cmax ([6]; 20 mg/m2, Cmax, Day 1, dose group 20 mg/m^2) was 28.8 ng/mL and the Cmax ([6]; 20 mg/m2, Cmax, Day 12, dose group 20 mg/m^2) was 64.6 ng/mL. For the same molecule, the “Cmax compared with IV dosed irinotecan” value [7] was “below the range for 125 mg/m^2 of IV dosed irinotecan”, the “dose at which Cmax began to plateau” value [7] was 200 mg/m^2 and the Tmax ([7]; po, 280 mg/m2) was 1 h. The Acute cholinergic diarrhea (15 mg HM30181A + 20-320 mg/m^2 oral irinotecan) was “not observed”, the “Treatment-related Grade 3-4 AEs, number of subjects” value [14] was 12 subjects and the “Treatment-related Grade 3-4 AEs, share of subjects” value [14] was 40%. For the same molecule, the “SAEs nausea or vomiting, number of subjects” value [15] was 4 subjects, the “Treatment-related SAEs, number of patients” value [15] was 6 patients and the “vomiting (most common AEs), share of subjects” value [15] was 20%. The “DLTs, number of subjects” value [16] was 2 subjects, the “kind of DLTs” value [16] was “neutropenia and C. Difficile diarrhea” and the “maximum tolerated dose (MTD)” value [8] was 20 mg/m^2 per day. The pharmacokinetics versus dose ([9]; 5-30 mg/m^2 per day for five days during a 21 day cycle) was “increased proportionally with dose”, the AUC ([9]; human, in vivo, 20 mg/m2) was 412 ng·h/mL and the AUC24 ([10]; 5 mg/m2) was 64.59 µg·h/L. For the same molecule, the AUC24 ([10]; 10 mg/m2) was 209.12 µg·h/L, the AUC24 ([10]; 15 mg/m2) was 379.56 µg·h/L and the AUC24 ([10]; 25 mg/m2) was 481.39 µg·h/L. The AUC24 ([10]; 30 mg/m2) was 454.54 µg·h/L.
